{"source": "paper PMC4880976", "about": "“Pharmacologic rationale for the NK1R antagonist, aprepitant as adjunctive therapy in HIV” (Journal of Translational Medicine, 2016)", "key": {"[1]": {"test_system": "anxiety-related behavior", "assay": "Anxiety-related behavior in SIV infected rhesus macaque (video recordings)", "assay_type": "in vivo", "details": "125 mg/day", "description": "Blood was collected for PK sampling on days 1, 7 and 14 and trough samples were collected prior to dosing on days 3, 5, 7, 11 and 13. […] Videotaped recordings were analyzed using Observer XT® (Noldus IT). Animals were sacrificed and necropsied after 1 year.\nFig. 4 Anxiety-related behavior* time course in SIV infected rhesus macaque receiving aprepitant at 125 mg/day or placebo. *Anxiety-related behavior was calculated based on the following parameters: body shake, hypervigilant scanning, self-licking and self-grooming, scratching, unresponsive inactivity and yawning."}, "[2]": {"test_system": "NK1R", "design": "method as in PMID 12562139, PMID 15121485", "details": "165 mg dose, PET; cited from earlier work"}, "[3]": {"assay": "in vivo", "details": "male, rhesus monkey", "description": "A pilot study in two groups of three male Rhesus macaques (Macaca mulatta) was conducted to assess the exposure attained following once daily dosing of 80 and 125 mg aprepitant administered orally for 14 days (n = 3 per dose group). The 80 and 125 mg doses correlate with the human doses recommended for CINV patients (125 mg orally 1 h prior to chemotherapy treatment (day 1) and 80 mg orally once daily in the morning on days 2 and 3). On a weight basis these doses represent approximately 8 and 12.5 mg/kg (weight range, 7–12 kg for the rhesus) compared to 1.14 and 1.79 mg/kg human doses (assuming a 70 kg person). […] Blood was collected for dense PK sampling on days 1, 7 and 14 and trough samples were collected prior to dosing on days 3, 5, 7, 11 and 13.\nBlood was collected for PK sampling on days 1, 7 and 14 and trough samples were collected prior to dosing on days 3, 5, 7, 11 and 13. Viral loads were assessed at 2 and 4 weeks after infection and monthly thereafter. […] Behavioral data were collected using video cameras installed on walls opposite the caging. Videotaping was scheduled to avoid disruptions in daily feedings, routine husbandry and research procedures. Data were collected pre-infection, 2 and 4 weeks post-infection and monthly thereafter. Videotaped recordings were analyzed using Observer XT® (Noldus IT). Animals were sacrificed and necropsied after 1 year."}, "[4]": {"test_system": "PD-1 expression on CD3+CD4+ cells", "assay": "PD-1 expression on CD4+ T-cells in PBMC, flow cytometry", "assay_type": "cell-based, human", "description": "(§1) For cytokine and PD-1 assessment experiments freshly isolated peripheral blood mononuclear cell (PBMC) purchased from the Human Immunology Core Facility of The University of Pennsylvania School of Medicine (Philadelphia, PA) were cultured in RPMI medium supplemented with 10 % FBS overnight. Some cultures were treated with SP (10 µM) aprepitant (10 µM) or DMSO (0.001 %, vehicle for aprepitant). Cytokine concentrations were measured in supernatants using multiplex assay 24 h after SP/aprepitant treatment (see below). For PD-1 expression SP and aprepitant were added at day 0 and PD-1 expression was monitored daily for up to 8 days using flow cytometry.\nFig. 6 Aprepitant blocks SP induced PD-1 expression on CD4+ T-cells. PBMC were treated for 7 days with SP and aprepitant as indicated. PD-1 expression was measured by flow cytometry on CD3+CD4+ cells and expressed as percentage of PD-1 positive cells. a Results from representative experiment are shown. First two columns show gaiting strategy. […] Median (spread): control 14.7 (11.1), SP treated 38.4 (60.6), SP + aprepitant treated 7.8 (6.0) TEXT PRINTED IN THE PICTURE: (a) SP: PD1+ 67.1 | (a) SP + aprepitant: PD1+ 9.53 DOUBTS OF THE COPYIST ABOUT THIS PICTURE: SP + aprepitant, PD1+ 9.53: the sign after PD1 looks like '+' or '−' because it touches the gate line / SP + aprepitant, 9.53: small print, so the digits 9, 5 and 3 are not fully certain / The rows 'no staining' (PD1+ 0.079) and 'control' (PD1+ 11.4) were left out because they are not substances"}, "[5]": {"test_system": "pro-inflammatory markers", "design": "method as in PMID 25915168", "details": "375 mg daily, 2 weeks, HIV positive individuals; cited from earlier work"}, "[6]": {"design": "species or system Rhesus macaques", "details": "rhesus monkey, in vivo", "description": "For infectivity studies, eight male rhesus macaques were used. Animals were infected intravenously with 50 ng p27 of SIV. […] Aprepitant (commercial capsule contents) was mixed and co-administered with various food preparations to ensure dosing compliance. Food preparations included peanut butter, marshmallow cream and honey, disguised in non-citrus fruit. While formal stability and delivery experiments were not conducted, pilot bioavailability studies confirmed the robustness of aprepitant exposures following food co-administration. The improved bioavailability with food-based dosing in conjunction with oral aprepitant is consistent with preclinical experiments which project simulated exposures based on the commercial nanosized aprepitant formulation. In this evaluation, in silico model predictions were similar to observed in vivo pharmacokinetic data in the fed state; other studies have shown the benefit of complexation strategies to enhance aprepitant solubility/dissolution [30, 31]. […] Videotaped recordings were analyzed using Observer XT® (Noldus IT). Animals were sacrificed and necropsied after 1 year."}, "[7]": {"test_system": "human PBMC", "assay": "SP dependent cytokine and chemokine production by PBMC, multiplex assay", "assay_type": "cell-based", "details": "aprepitant 10 µM with SP 10 µM, 24 h", "description": "as §1\nConcentrations of pro-inflammatory cytokines and chemokines in supernatants of human PBMC were measured using human Cytokine/Chemokine Magnetic Bead Panel—Premixed 30 Plex, HCYTMAG-60K-PX30 (Millipore, Billerica, MA, USA) as recommended by the manufacturers.\nFig. 5 SP dependent up regulation of cytokine and chemokine production by human PBMC* is inhibited by aprepitant. *Freshly isolated PBMC from normal donors were incubated for 24 h with SP and/or Aprepitant (10 µM each) as indicated. Control cultures were either left untreated of incubated with DMSO (vehicle for aprepitant). Pro-inflammatory markers were measured in supernatants using MILLIPORE Human Cytokine/Chemokine Magnetic Bead Panel."}, "[8]": {"test_system": "CD163 cleavage in human monocytes", "assay": "sCD163 release from human monocytes, ELISA", "assay_type": "cell-based", "details": "aprepitant 10 μM 30 min before SP 5 μM 60 min, p = 0.004", "description": "sCD163 was measured by ELISA (Trillium Diagnostics, Brewer, Maine, USA) according to manufacturer’s recommendations.\nFig. 7 SP induces cleavage of CD163 in monocytes. sCD163 was measured by ELISA in the supernatant of freshly isolated human monocytes treated with SP and aprepitant as indicated. a Time course of cells treated with varying doses of SP as indicated. *p < 0.001 control versus 5 and 10 μM of SP. b Cells were pre-incubated with aprepitant (10 μM) for 30 min and then treated with SP (5 μM) for 60 min. *p < 0.001 SP versus control, p = 0.004 SP versus SP + aprepitant. Results are presented as mean ± SD from three independent experiments"}}, "note": "Entries after “also recorded” stand apart in the source; their conditions may differ."}
{"smiles": "C[C@@H](O[C@H]1OCCN(Cc2n[nH]c(=O)[nH]2)[C@H]1c1ccc(F)cc1)c1cc(C(F)(F)F)cc(C(F)(F)F)c1", "note": "[aprepitant]", "values": [{"measurement": "anxiety-related behavior versus control", "setting": "[1]; after first 4 weeks (weeks 12-20)", "value": "significant reduction of anxiety"}, {"measurement": "anxiety-related behavior versus control", "setting": "[1]; first 4 weeks after infection", "value": "no significant difference"}, {"measurement": "receptor occupancy", "setting": "[2]", "value": "97–99%"}, {"measurement": "Kp", "setting": "[3]", "value": "0.0005 to 0.008"}, {"measurement": "decline in trough exposure between days 13 and 14 (extent of induction)", "setting": "[3]", "value": "approximately 32.5%"}, {"measurement": "trough plasma concentration reaches steady state", "setting": "[3]", "value": "≤ 10", "unit": "days"}, {"measurement": "percentage of PD-1 positive CD4 cells, median (spread)", "setting": "[4]; SP + aprepitant treated, 7 days, five experiments, control 14.7 (11.1)", "value": "7.8 (6.0) %"}, {"measurement": "effect on SP induced PD-1 expression", "setting": "[4]; aprepitant with SP", "value": "blocked"}, {"measurement": "levels of pro-inflammatory cytokines (G-CSF, MIP-1α, IL-6, IL-8, TNFα)", "setting": "[5]", "value": "reduced levels; also recorded: decrease; also recorded: significant reduction"}, {"measurement": "sCD163, plasma SP and PD-1 expression on CD4 T-cells", "setting": "[5]", "value": "decrease; also recorded: reduction"}, {"measurement": "systemic and neuropathology, treated versus untreated", "setting": "[6]", "value": "no differences"}, {"measurement": "effect on SP induced cytokine and chemokine production", "setting": "[7]", "value": "blocked"}, {"measurement": "effect on SP induced sCD163 release", "setting": "[8]", "value": "inhibited"}]}
